Assay results reported in US12371428B2 (Exelixis, Inc., priority 2019, dated 2025).
Like-named read-outs stand apart in the source and are kept apart here.

Key:
Type in all cases: cell-based
[1] = biological target: Met (phospho-Met, HGF-stimulated PC-3 prostate cancer cells) (Homo sapiens (Human), UniProt P08581); experiment: Met autophosphorylation ELISA in PC-3 cells (Example F); conditions: cellular activity; Met autophosphorylation ELISA in PC-3 cells; read-out: c-Met IC50
Summary of the method: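 Compounds were tested on HGF-stimulated PC-3 cells. After 24 h culture and 3 h serum starvation, cells got compound for 1 h and 100 ng/mL HGF for 10 min, and Met tyrosine phosphorylation was measured by ELISA.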

[2] = biological target: Mer (phospho-Mer, MERTK-transfected 293A cells) (Homo sapiens (Human), UniProt Q12866); experiment: Mer autophosphorylation ELISA in transient transfected 293A cells (Example H); conditions: cellular activity; Mer autophosphorylation ELISA in transient transfected 293A cells
Chain of Mer (phospho-Mer, MERTK-transfected 293A cells) (Q12866 21-999): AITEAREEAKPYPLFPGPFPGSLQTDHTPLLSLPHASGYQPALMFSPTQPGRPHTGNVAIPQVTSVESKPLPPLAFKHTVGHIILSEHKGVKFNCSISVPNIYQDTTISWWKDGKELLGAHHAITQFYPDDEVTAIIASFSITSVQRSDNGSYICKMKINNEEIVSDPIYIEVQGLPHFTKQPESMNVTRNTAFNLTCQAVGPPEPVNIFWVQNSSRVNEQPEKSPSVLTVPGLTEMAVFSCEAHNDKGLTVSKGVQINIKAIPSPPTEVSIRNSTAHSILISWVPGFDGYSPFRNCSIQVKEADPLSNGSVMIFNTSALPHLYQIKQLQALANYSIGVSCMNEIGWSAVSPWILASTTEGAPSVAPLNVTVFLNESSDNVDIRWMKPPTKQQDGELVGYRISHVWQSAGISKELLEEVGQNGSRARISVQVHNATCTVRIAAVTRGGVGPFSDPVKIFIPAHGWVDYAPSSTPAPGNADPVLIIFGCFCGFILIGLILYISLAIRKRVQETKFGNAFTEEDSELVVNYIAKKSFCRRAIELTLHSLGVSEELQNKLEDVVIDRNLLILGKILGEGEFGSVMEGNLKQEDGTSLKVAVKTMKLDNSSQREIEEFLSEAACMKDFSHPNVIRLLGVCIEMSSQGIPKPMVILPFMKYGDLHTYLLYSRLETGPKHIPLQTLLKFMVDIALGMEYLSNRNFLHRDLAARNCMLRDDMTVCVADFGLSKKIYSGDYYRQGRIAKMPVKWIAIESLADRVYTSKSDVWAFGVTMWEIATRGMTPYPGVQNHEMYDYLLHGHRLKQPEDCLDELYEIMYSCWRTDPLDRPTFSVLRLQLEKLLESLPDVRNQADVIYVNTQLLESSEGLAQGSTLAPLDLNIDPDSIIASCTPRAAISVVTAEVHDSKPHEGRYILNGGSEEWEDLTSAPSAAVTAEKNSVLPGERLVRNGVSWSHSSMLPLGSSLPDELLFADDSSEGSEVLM
Summary of the method: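 Inhibition of cellular Mer autophosphorylation is determined in 293A cells transiently expressing human MERTK after 1 h compound exposure (8 concentrations, serum-free, 0.3% DMSO). Phospho-Mer in clarified lysates is measured by ELISA, with DMSO and reference-inhibitor wells defining the 100% and 0% activity limits.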

[3] = biological target: KDR (phospho-KDR, VEGF165-stimulated HUVEC cells) (Homo sapiens (Human), UniProt P35968); experiment: KDR autophosphorylation ELISA in HUVEC cells (Example G); conditions: cellular activity; KDR autophosphorylation ELISA in HUVEC cells
Chain of KDR (phospho-KDR, VEGF165-stimulated HUVEC cells) (P35968 20-1356): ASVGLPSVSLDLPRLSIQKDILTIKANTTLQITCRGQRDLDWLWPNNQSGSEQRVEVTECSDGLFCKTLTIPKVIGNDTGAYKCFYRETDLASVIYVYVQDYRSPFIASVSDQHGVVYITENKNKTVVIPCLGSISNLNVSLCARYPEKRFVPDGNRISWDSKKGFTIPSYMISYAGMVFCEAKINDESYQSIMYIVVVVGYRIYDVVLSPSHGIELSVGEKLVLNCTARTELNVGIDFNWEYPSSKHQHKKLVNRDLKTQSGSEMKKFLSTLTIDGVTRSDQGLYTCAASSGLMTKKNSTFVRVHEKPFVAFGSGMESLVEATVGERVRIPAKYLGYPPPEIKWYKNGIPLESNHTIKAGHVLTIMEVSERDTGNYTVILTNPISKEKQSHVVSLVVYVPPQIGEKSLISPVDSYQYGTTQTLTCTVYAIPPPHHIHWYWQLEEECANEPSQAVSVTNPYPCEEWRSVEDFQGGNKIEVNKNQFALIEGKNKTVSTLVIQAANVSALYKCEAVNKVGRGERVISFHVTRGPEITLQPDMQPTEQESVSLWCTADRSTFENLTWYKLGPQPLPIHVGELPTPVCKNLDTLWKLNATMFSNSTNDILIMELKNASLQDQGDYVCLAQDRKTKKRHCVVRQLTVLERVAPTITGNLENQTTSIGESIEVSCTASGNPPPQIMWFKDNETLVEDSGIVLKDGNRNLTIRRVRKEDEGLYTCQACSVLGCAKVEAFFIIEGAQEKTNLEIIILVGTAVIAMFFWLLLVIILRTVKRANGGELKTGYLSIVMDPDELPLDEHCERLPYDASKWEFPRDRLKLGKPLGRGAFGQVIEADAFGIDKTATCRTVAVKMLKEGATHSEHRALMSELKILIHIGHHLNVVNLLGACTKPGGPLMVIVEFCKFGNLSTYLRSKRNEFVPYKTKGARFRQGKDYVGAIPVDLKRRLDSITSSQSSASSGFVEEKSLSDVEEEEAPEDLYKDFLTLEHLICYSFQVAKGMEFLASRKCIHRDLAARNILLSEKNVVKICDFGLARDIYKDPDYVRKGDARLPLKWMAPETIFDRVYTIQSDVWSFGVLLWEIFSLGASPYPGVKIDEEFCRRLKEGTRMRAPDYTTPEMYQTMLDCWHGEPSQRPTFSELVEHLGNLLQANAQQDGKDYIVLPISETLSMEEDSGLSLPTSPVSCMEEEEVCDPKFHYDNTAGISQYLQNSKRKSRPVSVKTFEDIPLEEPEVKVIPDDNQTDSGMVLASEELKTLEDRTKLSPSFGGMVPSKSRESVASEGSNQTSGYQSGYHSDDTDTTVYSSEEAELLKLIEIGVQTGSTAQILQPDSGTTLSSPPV
Summary of the method: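 Cells seeded, grown 24 h at 37 °C, starved 24 h serum-free; cpd 8-pt curve, 0.3% DMSO, 1 h; VEGF165 100 ng/mL, 5 min; cold PBS wash, lysis with orthovanadate and protease/phosphatase inhibitors; pKDR ELISA; IC50 by 4-parameter logistic regression.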

[4] = biological target: AXL (phospho-AXL, Gas6-stimulated A-172 glioblastoma cells) (Homo sapiens (Human), UniProt P30530); experiment: AXL autophosphorylation ELISA in A-172 cells (Example E)
Chain of AXL (phospho-AXL, Gas6-stimulated A-172 glioblastoma cells) (P30530 26-894): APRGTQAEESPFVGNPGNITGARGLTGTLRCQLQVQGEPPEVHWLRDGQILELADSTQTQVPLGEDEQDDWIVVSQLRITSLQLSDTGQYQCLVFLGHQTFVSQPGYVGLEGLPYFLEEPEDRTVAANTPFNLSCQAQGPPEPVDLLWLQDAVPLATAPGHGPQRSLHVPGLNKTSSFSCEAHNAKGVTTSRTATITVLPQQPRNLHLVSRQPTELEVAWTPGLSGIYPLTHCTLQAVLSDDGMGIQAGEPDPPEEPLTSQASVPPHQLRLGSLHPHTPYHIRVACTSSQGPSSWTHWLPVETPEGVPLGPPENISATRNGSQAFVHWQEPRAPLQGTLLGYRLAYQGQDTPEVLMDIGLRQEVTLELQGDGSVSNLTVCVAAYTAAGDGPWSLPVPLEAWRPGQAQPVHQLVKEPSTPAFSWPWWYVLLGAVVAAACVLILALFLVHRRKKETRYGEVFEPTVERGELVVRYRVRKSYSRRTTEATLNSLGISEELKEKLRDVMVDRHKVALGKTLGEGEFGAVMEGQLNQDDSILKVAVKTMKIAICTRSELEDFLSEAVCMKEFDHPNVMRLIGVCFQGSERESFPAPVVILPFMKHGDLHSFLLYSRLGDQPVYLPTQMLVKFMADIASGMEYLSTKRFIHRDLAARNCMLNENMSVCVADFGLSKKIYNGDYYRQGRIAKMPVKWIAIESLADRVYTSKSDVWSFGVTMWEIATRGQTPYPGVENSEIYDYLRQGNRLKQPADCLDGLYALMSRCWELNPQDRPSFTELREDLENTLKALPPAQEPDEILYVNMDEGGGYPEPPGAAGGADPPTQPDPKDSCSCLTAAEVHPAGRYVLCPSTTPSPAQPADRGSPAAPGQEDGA
Protocol: A-172 cells were incubated at 37° C., 5% CO2 for 24 h and then starved for 24 h in serum-free medium. Test compounds were serially diluted to produce an 8-point dose curve in fresh serum-free medium to a final concentration of 0.3% DMSO (vehicle) and added to the cells and incubated for 1 h. […] Lysates were collected and 100 μL/well added into the human phospho-AXL DuoSet IC ELISA (R&D Systems #DYC2228-2). […] Positive control wells (100% activity) contained Gas6-stimulated, DMSO-treated cell lysates. Negative control wells (0% activity) contained Gas6-stimulated, reference inhibitor-treated cell lysates. IC50 values were calculated by nonlinear regression analysis using a 4-parameter logistic curve fit in ActivityBase XE (IDBS).

[5] = cellular activity, AXL autophosphorylation ELISA in A-172 cells, read-out: Axl IC50

Chain of Met (phospho-Met, HGF-stimulated PC-3 prostate cancer cells) (P08581 25-1390): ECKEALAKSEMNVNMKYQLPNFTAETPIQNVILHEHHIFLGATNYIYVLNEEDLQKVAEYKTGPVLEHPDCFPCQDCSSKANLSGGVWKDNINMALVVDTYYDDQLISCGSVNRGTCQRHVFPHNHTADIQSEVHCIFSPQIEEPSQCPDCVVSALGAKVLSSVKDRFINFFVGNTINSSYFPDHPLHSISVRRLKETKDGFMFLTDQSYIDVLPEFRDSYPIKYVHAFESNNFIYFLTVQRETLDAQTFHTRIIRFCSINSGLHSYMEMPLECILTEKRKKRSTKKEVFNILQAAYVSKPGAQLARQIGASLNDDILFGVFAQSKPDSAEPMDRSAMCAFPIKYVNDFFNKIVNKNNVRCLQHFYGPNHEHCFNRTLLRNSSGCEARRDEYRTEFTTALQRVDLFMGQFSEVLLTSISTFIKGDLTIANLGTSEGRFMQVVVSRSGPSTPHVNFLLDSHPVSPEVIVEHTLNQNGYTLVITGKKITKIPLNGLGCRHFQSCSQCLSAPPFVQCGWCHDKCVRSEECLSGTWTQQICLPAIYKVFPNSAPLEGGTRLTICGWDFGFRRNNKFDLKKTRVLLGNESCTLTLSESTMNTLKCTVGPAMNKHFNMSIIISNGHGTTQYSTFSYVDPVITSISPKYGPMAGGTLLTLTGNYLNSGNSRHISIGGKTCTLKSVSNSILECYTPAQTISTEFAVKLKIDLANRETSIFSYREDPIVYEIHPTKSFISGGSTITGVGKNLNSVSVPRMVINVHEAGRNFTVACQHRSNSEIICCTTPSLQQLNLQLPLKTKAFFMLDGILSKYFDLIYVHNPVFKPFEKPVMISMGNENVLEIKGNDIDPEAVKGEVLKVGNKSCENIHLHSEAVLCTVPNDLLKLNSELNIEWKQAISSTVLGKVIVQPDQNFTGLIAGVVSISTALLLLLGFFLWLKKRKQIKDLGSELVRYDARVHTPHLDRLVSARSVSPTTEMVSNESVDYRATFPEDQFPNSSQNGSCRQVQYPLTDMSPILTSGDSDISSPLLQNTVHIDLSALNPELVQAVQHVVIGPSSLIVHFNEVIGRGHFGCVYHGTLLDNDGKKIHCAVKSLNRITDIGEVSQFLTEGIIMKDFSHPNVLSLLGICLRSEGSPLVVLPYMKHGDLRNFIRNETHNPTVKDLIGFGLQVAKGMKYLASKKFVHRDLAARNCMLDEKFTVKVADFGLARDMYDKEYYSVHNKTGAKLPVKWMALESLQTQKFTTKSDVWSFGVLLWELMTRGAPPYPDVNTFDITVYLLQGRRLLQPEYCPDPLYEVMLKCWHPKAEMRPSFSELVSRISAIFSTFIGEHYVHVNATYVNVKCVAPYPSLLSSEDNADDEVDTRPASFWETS

Row | Compound | IC50 [1] [nM] | IC50 [2] [nM] | IC50 [3] [nM] | IC50 [4, 5] [nM] | IC50 [4] [nM]
1 | COc1cc2nccc(Oc3ccc(NC(=O)c4c(C)c(C(C)=O)c(C)n(-c5ccc(F)cc5)c4=O)cc3F)c2nc1OC [Compound 321, 5-Acetyl-N-[4-[(6,7-dimethoxy-1,5-naphthyridin-4-yl)oxy]-3-fluorophenyl]-1-(4-fluorophenyl)-4,6-dimethyl-2-oxopyridine-3-carboxamide] | < 100 | < 100 | 100 to 300 | – | < 100
2 | COc1cc2nccc(Oc3ccc(NC(=O)c4c(C)c(F)c(C)n(-c5ccc(F)cc5)c4=O)cc3)c2nc1OC [Compound 325, N-[4-[(6,7-Dimethoxy-1,5-naphthyridin-4-yl)oxy]phenyl]-5-fluoro-1-(4-fluorophenyl)-4,6-dimethyl-2-oxopyridine-3-carboxamide] | < 100 | < 100 | < 100 | < 100 | –
3 | COc1cnc2c(Oc3ccc(NC(=O)c4c(C)c(F)c(C)n(-c5ccc(F)cc5)c4=O)cc3F)ccnc2c1 [Compound 326, 5-Fluoro-N-[3-fluoro-4-[(7-methoxy-1,5-naphthyridin-4-yl)oxy]phenyl]-1-(4-fluorophenyl)-4,6-dimethyl-2-oxopyridine-3-carboxamide] | < 100 | < 100 | 100 to 300 | < 100 | –
4 | C=Cc1c(C)c(C(=O)Nc2ccc(Oc3ccnc4cc(OC)c(OC)nc34)c(F)c2)c(=O)n(-c2ccc(F)cc2)c1C [Compound 327, N-[4-[(6,7-Dimethoxy-1,5-naphthyridin-4-yl)oxy]-3-fluorophenyl]-5-ethenyl-1-(4-fluorophenyl)-4,6-dimethyl-2-oxopyridine-3-carboxamide] | < 100 | < 100 | < 100 | < 100 | –
5 | C=Cc1c(C)c(C(=O)Nc2ccc(Oc3ccnc4cc(OC)c(OC)nc34)cc2)c(=O)n(-c2ccc(F)cc2)c1C [Compound 328, N-[4-[(6,7-Dimethoxy-1,5-naphthyridin-4-yl)oxy]phenyl]-5-ethenyl-1-(4-fluorophenyl)-4,6-dimethyl-2-oxopyridine-3-carboxamide] | < 100 | < 100 | > 300 | < 100 | –
6 | C=Cc1c(C)c(C(=O)Nc2ccc(Oc3ccnc4cc(OC)cnc34)c(F)c2)c(=O)n(-c2ccc(F)cc2)c1C [Compound 329, 5-ethenyl-N-[3-fluoro-4-[(7-methoxy-1,5-naphthyridin-4-yl)oxy]phenyl]-1-(4-fluorophenyl)-4,6-dimethyl-2-oxopyridine-3-carboxamide] | < 100 | < 100 | 100 to 300 | < 100 | –
7 | CCc1c(C)c(C(=O)Nc2ccc(Oc3ccnc4cc(OC)c(OC)nc34)c(F)c2)c(=O)n(-c2ccc(F)cc2)c1C [Compound 330, N-[4-[(6,7-dimethoxy-1,5-naphthyridin-4-yl)oxy]-3-fluorophenyl]-5-ethyl-1-(4-fluorophenyl)-4,6-dimethyl-2-oxopyridine-3-carboxamide] | < 100 | < 100 | > 300 | < 100 | –
8 | CCc1c(C)c(C(=O)Nc2ccc(Oc3ccnc4cc(OC)c(OC)nc34)cc2)c(=O)n(-c2ccc(F)cc2)c1C [Compound 331, N-[4-[(6,7-dimethoxy-1,5-naphthyridin-4-yl)oxy]phenyl]-5-ethyl-1-(4-fluorophenyl)-4,6-dimethyl-2-oxopyridine-3-carboxamide] | < 100 | < 100 | > 300 | < 100 | –
9 | COc1cc2nccc(Oc3ccc(NC(=O)c4c(C)ccn(-c5ccc(F)cc5C)c4=O)cc3)c2nc1OC [Compound 332, N-[4-[(6,7-dimethoxy-1,5-naphthyridin-4-yl)oxy]phenyl]-1-(4-fluoro-2-methylphenyl)-4-methyl-2-oxopyridine-3-carboxamide] | < 100 | < 100 | < 100 | < 100 | –
10 | CCOc1c(C(=O)Nc2ccc(Oc3ccnc4cc(OC)c(OC)nc34)c(F)c2)cnc(C)c1-c1ccc(F)cc1 [Compound 333, N-[4-[(6,7-dimethoxy-1,5-naphthyridin-4-yl)oxy]-3-fluorophenyl]-4-ethoxy-5-(4-fluorophenyl)-6-methylpyridine-3-carboxamide] | < 100 | < 100 | 100 to 300 | < 100 | –
11 | COc1cnc2c(Oc3ccc(NC(=O)c4c(C)ccn(-c5ccc(F)cc5C)c4=O)cc3F)ccnc2c1 [Compound 334, N-[3-fluoro-4-[(7-methoxy-1,5-naphthyridin-4-yl)oxy]phenyl]-1-(4-fluoro-2-methylphenyl)-4-methyl-2-oxopyridine-3-carboxamide] | < 100 | < 100 | < 100 | 100 to 300 | –
12 | CCc1c(C)c(C(=O)Nc2ccc(Oc3ccnc4cc(OC)cnc34)c(F)c2)c(=O)n(-c2ccc(F)cc2)c1C [Compound 335, 5-ethyl-N-[3-fluoro-4-[(7-methoxy-1,5-naphthyridin-4-yl)oxy]phenyl]-1-(4-fluorophenyl)-4,6-dimethyl-2-oxopyridine-3-carboxamide] | < 100 | < 100 | > 300 | < 100 | –

Now from value to compound, other results behind:

Row | IC50 [1] [nM] | IC50 [2] [nM] | IC50 [3] [nM] | IC50 [4, 5] [nM] | Compound | IC50 [4] [nM]
13 | < 100 | < 100 | < 100 | < 100 | COc1cnc2c(Oc3ccc(NC(=O)c4c(C)c(C)c(C)n(-c5ccc(F)cc5)c4=O)cc3F)ccnc2c1 [Compound 316, N-[3-Fluoro-4-[(7-methoxy-1,5-naphthyridin-4-yl)oxy]phenyl]-1-(4-fluorophenyl)-4,5,6-trimethyl-2-oxopyridine-3-carboxamide] | –
14 | < 100 | < 100 | < 100 | < 100 | COc1cnc2c(Oc3ccc(NC(=O)c4c(C)c(C)c(C)n(-c5ccc(F)cc5)c4=O)cc3)ccnc2c1 [Compound 317, 1-(4-Fluorophenyl)-N-[4-[(7-methoxy-1,5-naphthyridin-4-yl)oxy]phenyl]-4,5,6-trimethyl-2-oxopyridine-3-carboxamide] | –
15 | < 100 | < 100 | > 300 | < 100 | COc1cc2nccc(Oc3ccc(NC(=O)c4c(C)c(C(N)=O)c(C)n(-c5ccc(F)cc5)c4=O)cc3F)c2nc1OC [Compound 318, 5-N-[4-[(6,7-Dimethoxy-1,5-naphthyridin-4-yl)oxy]-3-fluorophenyl]-1-(4-fluorophenyl)-2,4-dimethyl-6-oxopyridine-3,5-dicarboxamide] | –
16 | < 100 | < 100 | > 300 | < 100 | COc1cc2nccc(Oc3ccc(NC(=O)c4c(C)c(C(N)=O)c(C)n(-c5ccc(F)cc5)c4=O)cc3)c2nc1OC [Compound 319, 5-N-[4-[(6,7-Dimethoxy-1,5-naphthyridin-4-yl)oxy]phenyl]-1-(4-fluorophenyl)-2,4-dimethyl-6-oxopyridine-3,5-dicarboxamide] | –
17 | < 100 | < 100 | > 300 | < 100 | COc1cc2nccc(Oc3ccc(NC(=O)c4c(C)c(C#N)c(C)n(-c5ccc(F)cc5)c4=O)cc3)c2nc1OC [Compound 320, 5-Cyano-N-[4-[(6,7-dimethoxy-1,5-naphthyridin-4-yl)oxy]phenyl]-1-(4-fluorophenyl)-4,6-dimethyl-2-oxopyridine-3-carboxamide] | –
18 | < 100 | < 100 | 100 to 300 | < 100 | COc1cc2nccc(Oc3ccc(NC(=O)c4c(C)c(C(C)=O)c(C)n(-c5ccc(F)cc5)c4=O)cc3)c2nc1OC [Compound 322, 5-Acetyl-N-[4-[(6,7-dimethoxy-1,5-naphthyridin-4-yl)oxy]phenyl]-1-(4-fluorophenyl)-4,6-dimethyl-2-oxopyridine-3-carboxamide] | –
19 | < 100 | < 100 | 100 to 300 | < 100 | COc1cnc2c(Oc3ccc(NC(=O)c4c(C)c(C(C)=O)c(C)n(-c5ccc(F)cc5)c4=O)cc3F)ccnc2c1 [Compound 323, 5-Acetyl-N-[3-fluoro-4-[(7-methoxy-1,5-naphthyridin-4-yl)oxy]phenyl]-1-(4-fluorophenyl)-4,6-dimethyl-2-oxopyridine-3-carboxamide] | –
20 | < 100 | < 100 | < 100 | < 100 | COc1cc2nccc(Oc3ccc(NC(=O)c4c(C)c(F)c(C)n(-c5ccc(F)cc5)c4=O)cc3F)c2nc1OC [Compound 324, N-[4-[(6,7-Dimethoxy-1,5-naphthyridin-4-yl)oxy]-3-fluorophenyl]-5-fluoro-1-(4-fluorophenyl)-4,6-dimethyl-2-oxopyridine-3-carboxamide] | –
